# In patent US20220087987A1, “A METHOD FOR TREATING SWI/SNF COMPLEX-DEFICIENT CANCERS COMPRISING GLUTATHIONE (GSH) METABOLIC PATHWAY INHIBITOR” (National Cancer Center, priority 2018, published 2022):
# How the values were obtained:
# Type in all cases: cell-based, human
# [1] = tested on: ARID1A-proficient and ARID1A-deficient cancer cell lines; experiment: Cell viability and colony formation in cancer cell line panel; conditions: four ARID1A-proficient and six ARID1A-deficient cell lines; cell viability, colony formation
# [2] = tested on: ARID1A-KO cells and ARID1A-deficient cancer cells; experiment: Apoptosis detection (cleaved caspase-3/7, Annexin V)
# Experimental: The Annexin V-FITC/PI Apoptosis Detection Kit (Sigma-Aldrich) was used to detect apoptotic cells. Briefly, the cell pellet was suspended in 1× binding buffer and then incubated with Annexin V-FITC and PI in the dark for 10 min. Fluorescence was analyzed on a Guava flow cytometer (Millipore). Data were analyzed using GuavaSoft software (v. 2.7). Relative ratios of the Annexin V-positive fraction in treated samples were normalized against untreated samples.
# GSH, ROS and apoptosis were detected using the GSH/GSSG-Glo Assay (Promega) and/or the GSH-Glo Assay (Promega), the ROS-Glo Assay (Promega), and the Caspase-Glo 3/7 Assay, respectively. To measure levels of GSH, ROS and apoptosis after drug treatment, cells were trypsinized, counted, reseeded at the specified density in 96-well plates and exposed to the indicated concentrations of drugs. After 16-48 hrs, luminescence was measured using an Envision Multi-label plate reader (PerkinElmer). […] Cells were trypsinized after a further 48 hrs, counted, and reseeded at the specified density in 96-well plates. After 72-120 hrs, luminescence was measured using an Envision Multi-label plate reader (PerkinElmer). Cell viability was also measured using the CellTiter-Glo Luminescent Cell Viability Assay (Promega). […] The GSH/GSSG ratio was calculated as the GSH-GSSG signal divided by the GSSG/2 signal. […]
# GSH = experiment: Detection of GSH in cells (GSH/GSSG-Glo, GSH-Glo)
# ROS = experiment: Detection of ROS in cells (ROS-Glo)
# Experimental: GSH, ROS and apoptosis were detected using the GSH/GSSG-Glo Assay (Promega) and/or the GSH-Glo Assay (Promega), the ROS-Glo Assay (Promega), and the Caspase-Glo 3/7 Assay, respectively. To measure levels of GSH, ROS and apoptosis after drug treatment, cells were trypsinized, counted, reseeded at the specified density in 96-well plates and exposed to the indicated concentrations of drugs. After 16-48 hrs, luminescence was measured using an Envision Multi-label plate reader (PerkinElmer). To measure levels of GSH and ROS after siRNA-mediated knockdown, cell lines were transfected with siRNAs (25 nM) using Lipofectamine RNAiMAX. After 48 hrs, cells were trypsinized and transfected repeatedly with siRNAs (25 nM) using Lipofectamine RNAiMAX. Cells were trypsinized after a further 48 hrs, counted, and reseeded at the specified density in 96-well plates. After 72-120 hrs, luminescence was measured using an Envision Multi-label plate reader (PerkinElmer). Cell viability was also measured using the CellTiter-Glo Luminescent Cell Viability Assay (Promega). Caspase-3/7, GSH, and ROS levels were normalized against cell viability. The GSH/GSSG ratio was calculated as the GSH-GSSG signal divided by the GSSG/2 signal. Relative signal ratios in treated samples were normalized against untreated samples.
# [3] = tested on: TrxR (TrxR1, TrxR2 and TrxR3); experiment: Detection of TrxR activity; conditions: 24 hrs
# Experimental: TrxR activity including TrxR1, TrxR2 and TrxR3 was measured using the Thioredoxin Reductase Assay Kit (Abcam). Cells were trypsinized, counted, reseeded at the specified density in 10 cm dishes and exposed to the indicated concentrations of APR-246. After 24 hrs, cells were washed with cold PBS and lysed with buffer containing a proteinase inhibitor. After centrifugation, the supernatant was supplemented with a TrxR inhibitor and incubated for 20 min at 25° C. Absorbance was measured using an Envision Multi-label plate reader (PerkinElmer). Relative TrxR ratios were normalized against untreated samples.
# NOXA = experiment: Quantitation of NOXA mRNA (quantitative RT-PCR); conditions: ARID1A-KO cells and ARID1A-deficient cancer cells, 24 hrs
# Experimental: mRNA was extracted and cDNA was synthesized using the SuperPrep (Registered Trademark) Cell Lysis & RT Kit for qPCR (TOYOBO). Aliquots of cDNA were subjected to quantitative PCR using the SuperPrep/THUNDERBIRD Probe qPCR Set (TOYOBO) and TaqMan Gene Expression Assays (Life Technologies). The following gene-specific primer/probe sets were used: NOXA (PMAIP1) (Hs00560402 ml), NRF2 (NFE2L2) (Hs00975961 g_1), GCLC (Hs00155249 ml), GSS (Hs00609286_m1), and SLC7A11 (Hs00921938_m1). PCR was performed in an ABI StepOnePlus Real-Time PCR System (Life Technologies) under the following conditions: denaturation at 95° C. for 15 s, followed by annealing and extension at 60° C. for 30 s (40 cycles). For each sample, the mRNA levels of target genes were normalized against levels of GAPDH mRNA. The target/GAPDH ratios were then normalized against those in control samples using the 2-ΔΔCt method.
# p53, p21 = experiment: Immunoblot for p53 and p21; conditions: ARID1A-WT and ARID1A-KO HCT116; 50 μM PRIMA-1, 50 μM APR-246, 10 μM Nutlin3a, 16 hrs
# Experimental: The soluble fractions of whole-cell lysates were mixed with SDS sample buffer. […] The soluble fractions were mixed with SDS sample buffer. Tumor samples derived from xenografts were weighed and washed with PBS. […] The homogenized tumor samples were diluted in an additional 450 μl of NETN420 buffer, incubated for 30 min on ice, and centrifuged at 4° C. for 10 min at 15,000 rpm. The soluble fractions of whole-cell lysates were mixed with SDS sample buffer. Proteins were separated by SDS-PAGE, transferred to PVDF membranes, and immunoblotted with the indicated antibodies. β-actin was used as a loading control. Membranes were blocked overnight at 4° C. or for 1 hr at 25° C. with PVDF Blocking Reagent for Can Get Signal (TOYOBO) and then probed with Can Get Signal Solution 1 (TOYOBO) containing primary antibodies. After washing with TBS containing 0.1% Tween 20, the membranes were incubated with TBS containing 0.1% Tween 20, 1% BSA, and horseradish peroxidase-conjugated anti-mouse or anti-rabbit secondary antibodies, and visualized using Western Lightning ECL Pro (Perkin Elmer). Chemiluminescence signals were measured using LAS-3000 Imaging System (Fujifilm). Signal intensities were measured using Multi Gauge software.
# [4] = tested on: uterine cancer cell lines; experiment: Cell viability of uterine cancer cell lines; conditions: treatment for 6 days
# Experimental: (§1) Cell viability was examined by measuring the cellular ATP level using the CellTiter-Glo Luminescent Cell Viability Assay (Promega). To measure cell viability after siRNA-mediated knockdown, cell lines were transfected with siRNAs (25 nM) using Lipofectamine RNAiMAX. After 48 hrs, cells were trypsinized and repeatedly transfected with siRNAs (25 nM) using Lipofectamine RNAiMAX. Cells were trypsinized after a further 48 hrs, counted, and reseeded at the specified density in 96-well plates. To measure cell viability after drug treatment, cells were trypsinized, counted, reseeded at the specified density in 96-well plates, and exposed to the indicated concentrations of drugs. Cell viability was measured using the CellTiter-Glo Luminescent Cell Viability Assay. Luminescence was measured using an Envision Multi-label plate reader (PerkinElmer).
# [5] = tested on: bile duct cancer cell lines; experiment: Cell viability of bile duct cancer cell lines; conditions: treatment for 6 days
# Experimental: as §1
# [6] = ARID1A-deficient versus ARID1A-proficient ovarian and other cancer cells
smiles,measurement,setting,value
COCC1(CO)C(=O)C2CCN1CC2 (stereo not drawn) [APR-246],sensitivity of ARID1A-deficient versus ARID1A-proficient cancer cells,[1],more sensitive to APR-246 than ARID1A-proficient cancer cells
same,"apoptosis (caspase activation, Annexin V)",[2],induced apoptosis
same,GSH level (GSH/GSSG) in SWI/SNF complexes-deficient cancer cells,"GSH; 40 μM APR-246, 24 hrs",decreased in the GSH level
same,GSH levels (GSH/GSSG) in gastric cancer PDCs,"GSH; 40 or 50 μM APR-246, 1.25 μM erastin, 24 hrs",markedly decreased GSH levels in ARID1A-deficient PDCs and not in ARID1A-proficient PDCs
same,GSH level (ratio of reduced GSH to GSSG),"GSH; ARID1A-KO HCT116 cells, but not ARID1A-WT cells, 24 hrs",dose-dependently decreased the GSH level
same,GSH levels in ovarian PDCs,"GSH; ARID1A-deficient PDCs, 50 μM, 24 hrs",decreased the GSH levels
same,GSH level in cancer cell lines,GSH; [6],decreased GSH level
same,ROS level in SWI/SNF complexes-deficient cancer cells,"ROS; 40 μM APR-246, 24 hrs",increased in the ROS level
same,ROS levels in gastric cancer PDCs,"ROS; 40 or 50 μM APR-246, 48 hrs",increased more markedly in ARID1A-deficient than in ARID1A-proficient PDCs
same,intracellular ROS level (H2O2),"ROS; ARID1A-KO versus ARID1A-WT HCT116 cells, 48 hrs",increased more in ARID1A-KO cells than in ARID1A-WT cells
same,levels of ROS and apoptosis in ovarian PDCs,"ROS; ARID1A-deficient PDCs, 40-50 μM, 24-48 hrs",increased the levels of ROS and apoptosis
same,ROS level in cancer cell lines,ROS; [6],increased ROS level
same,TrxR activity,"[3]; ARID1A-WT or ARID1A-KO HCT116 cells, same concentrations as decrease GSH",did not affect TrxR activity
same,TrxR activity at a higher concentration,"[3]; HCT116 cells, 50 μM",suppressed TrxR activity
same,mRNA expression of NOXA,NOXA,increased
same,expression of p53 and p21,"p53, p21",did not markedly affect expression of p53 or p21
same,IC50 values in ARID1A-deficient versus ARID1A-proficient uterine cancer cell lines,[4],markedly lower in three ARID1A-deficient cell lines than in two ARID1A-proficient cell lines
same,IC50 values in ARID1A-deficient versus ARID1A-proficient bile duct cancer cell lines,[5],markedly lower in two ARID1A-deficient cell lines than in two ARID1A-proficient cell lines
